Holding throughout (format): functional, cell-based
For assay [1], the target named is T1, Muscarinic acetylcholine receptor M5 (Homo sapiens, UniProt P08912).
T1 sequence (P08912 whole entry): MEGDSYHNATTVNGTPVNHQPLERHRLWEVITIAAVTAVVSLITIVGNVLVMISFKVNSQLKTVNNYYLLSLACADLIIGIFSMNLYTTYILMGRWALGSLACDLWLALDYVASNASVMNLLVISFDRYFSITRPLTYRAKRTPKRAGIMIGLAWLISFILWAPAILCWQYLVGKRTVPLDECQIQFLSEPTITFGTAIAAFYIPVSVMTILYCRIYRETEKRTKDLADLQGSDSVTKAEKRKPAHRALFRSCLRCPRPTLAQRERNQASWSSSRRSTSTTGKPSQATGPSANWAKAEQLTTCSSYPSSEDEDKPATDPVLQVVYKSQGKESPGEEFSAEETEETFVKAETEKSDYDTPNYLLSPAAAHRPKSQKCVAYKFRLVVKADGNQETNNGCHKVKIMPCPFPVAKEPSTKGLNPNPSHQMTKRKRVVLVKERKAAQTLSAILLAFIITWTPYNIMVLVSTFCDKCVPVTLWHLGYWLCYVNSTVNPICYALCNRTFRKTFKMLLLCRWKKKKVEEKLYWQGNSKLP
The assay can be described thus: Negative allosteric modulation of human muscarinic acetylcholine receptor M5 expressed in CHO cells assessed as inhibition of acetylcholine-induced calcium mobilization incubated for 150 secs prior to acetylcholine induction by Fluo-4 AM staining-based fluorescence assay. Background: Calcium flux is commonly read through the fluorescence of an indicator in the cells.

Assay [2] concerns the target T2, Muscarinic acetylcholine receptor M5 (Homo sapiens) (UniProt P08912).
T2 sequence (whole entry): T1 sequence (P08912 whole entry)
The assay can be described thus: Negative allosteric modulation of human muscarinic acetylcholine receptor M5 expressed in CHO cells assessed as reduction of acetylcholine-induced calcium mobilization at 10 uM incubated for 150 secs prior to acetylcholine induction by Fluo-4 AM staining-based fluorescence assay relative to control. Also on record: scale not given: the % may be the effect or the level left.

The target of assay [3] is T3, Muscarinic acetylcholine receptor M4 (Homo sapiens, UniProt P08173).
T3 sequence (P08173 whole entry): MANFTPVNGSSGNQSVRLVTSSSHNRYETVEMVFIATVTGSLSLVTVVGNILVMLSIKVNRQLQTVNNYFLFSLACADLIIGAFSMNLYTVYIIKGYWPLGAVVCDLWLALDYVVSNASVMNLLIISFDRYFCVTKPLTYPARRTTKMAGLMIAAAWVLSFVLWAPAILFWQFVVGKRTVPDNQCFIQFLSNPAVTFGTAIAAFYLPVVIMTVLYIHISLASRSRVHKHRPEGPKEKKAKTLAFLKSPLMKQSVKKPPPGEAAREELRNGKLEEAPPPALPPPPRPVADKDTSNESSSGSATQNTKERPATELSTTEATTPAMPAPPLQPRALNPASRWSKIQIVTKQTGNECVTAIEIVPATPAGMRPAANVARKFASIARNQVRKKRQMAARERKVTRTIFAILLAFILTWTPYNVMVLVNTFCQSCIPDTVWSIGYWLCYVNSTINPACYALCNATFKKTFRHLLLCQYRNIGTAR
The assay can be described thus: Negative allosteric modulation of human muscarinic acetylcholine receptor M4 expressed in CHO cells assessed as inhibition of acetylcholine-induced calcium mobilization incubated for 150 secs prior to acetylcholine induction by Fluo-4 AM staining-based fluorescence assay.

Assay [4] concerns the target T4, Muscarinic acetylcholine receptor M1 (Homo sapiens, UniProt P11229).
T4 sequence (P11229 whole entry): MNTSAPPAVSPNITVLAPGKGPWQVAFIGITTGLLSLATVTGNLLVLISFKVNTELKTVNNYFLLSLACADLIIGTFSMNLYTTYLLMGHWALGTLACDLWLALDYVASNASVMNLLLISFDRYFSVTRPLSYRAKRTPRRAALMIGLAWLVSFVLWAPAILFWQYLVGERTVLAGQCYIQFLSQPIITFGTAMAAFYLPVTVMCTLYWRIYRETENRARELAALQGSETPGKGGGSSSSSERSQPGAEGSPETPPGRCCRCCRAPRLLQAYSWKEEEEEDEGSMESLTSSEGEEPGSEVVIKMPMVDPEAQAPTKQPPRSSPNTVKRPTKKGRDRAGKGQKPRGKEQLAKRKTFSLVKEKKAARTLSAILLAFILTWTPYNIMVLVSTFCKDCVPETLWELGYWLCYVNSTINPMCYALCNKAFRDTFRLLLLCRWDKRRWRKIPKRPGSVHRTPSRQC
As to the kind of experiment: Negative allosteric modulation of human muscarinic acetylcholine receptor M1 expressed in CHO cells assessed as inhibition of acetylcholine-induced calcium mobilization incubated for 150 secs prior to acetylcholine induction by Fluo-4 AM staining-based fluorescence assay.

The target in assay [5] is T5, Muscarinic acetylcholine receptor M5 (Rattus norvegicus, UniProt P08911).
T5 sequence (P08911 whole entry): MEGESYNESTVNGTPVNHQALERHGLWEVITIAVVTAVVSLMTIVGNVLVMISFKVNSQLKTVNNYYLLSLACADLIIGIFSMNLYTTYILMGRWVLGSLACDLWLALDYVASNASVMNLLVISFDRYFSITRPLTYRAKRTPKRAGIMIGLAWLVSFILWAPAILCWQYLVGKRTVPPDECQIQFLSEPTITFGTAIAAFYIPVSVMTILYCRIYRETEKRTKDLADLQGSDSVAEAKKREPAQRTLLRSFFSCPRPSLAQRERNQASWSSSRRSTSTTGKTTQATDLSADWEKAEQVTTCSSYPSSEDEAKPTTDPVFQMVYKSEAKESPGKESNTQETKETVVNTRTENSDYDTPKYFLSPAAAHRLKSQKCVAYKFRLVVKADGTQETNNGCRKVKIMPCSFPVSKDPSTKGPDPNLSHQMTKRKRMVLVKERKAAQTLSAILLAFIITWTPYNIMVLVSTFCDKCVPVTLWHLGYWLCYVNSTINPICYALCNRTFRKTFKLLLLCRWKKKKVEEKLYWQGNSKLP
The assay can be described thus: Negative allosteric modulation of rat muscarinic acetylcholine receptor M5 expressed in CHO cells assessed as inhibition of acetylcholine-induced calcium mobilization incubated for 150 secs prior to acetylcholine induction by Fluo-4 AM staining-based fluorescence assay.

For assay [6], the target named is T6, Muscarinic acetylcholine receptor M2 (Homo sapiens, UniProt P08172).
T6 sequence (P08172 whole entry): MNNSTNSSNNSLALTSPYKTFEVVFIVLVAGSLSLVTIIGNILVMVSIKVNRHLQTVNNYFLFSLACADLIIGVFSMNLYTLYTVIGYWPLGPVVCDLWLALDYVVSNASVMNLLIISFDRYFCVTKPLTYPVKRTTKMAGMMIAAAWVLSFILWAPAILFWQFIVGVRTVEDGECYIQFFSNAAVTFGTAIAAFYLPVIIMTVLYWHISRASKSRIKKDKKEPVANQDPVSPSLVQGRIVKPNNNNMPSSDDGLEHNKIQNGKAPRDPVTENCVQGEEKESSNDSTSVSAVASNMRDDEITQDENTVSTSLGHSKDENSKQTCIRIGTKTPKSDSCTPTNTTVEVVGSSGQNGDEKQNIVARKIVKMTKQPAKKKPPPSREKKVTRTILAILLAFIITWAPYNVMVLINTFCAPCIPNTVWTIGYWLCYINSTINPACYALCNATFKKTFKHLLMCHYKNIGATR
As to the kind of experiment: Negative allosteric modulation of human muscarinic acetylcholine receptor M2 expressed in CHO cells assessed as inhibition of acetylcholine-induced calcium mobilization incubated for 150 secs prior to acetylcholine induction by Fluo-4 AM staining-based fluorescence assay.

For assay [7], the target named is Muscarinic acetylcholine receptor M3 (Homo sapiens, UniProt P20309). As to the kind of experiment: Negative allosteric modulation of human muscarinic acetylcholine receptor M3 expressed in CHO cells assessed as inhibition of acetylcholine-induced calcium mobilization incubated for 150 secs prior to acetylcholine induction by Fluo-4 AM staining-based fluorescence assay.
Sequence of Muscarinic acetylcholine receptor M3 (P20309 whole entry): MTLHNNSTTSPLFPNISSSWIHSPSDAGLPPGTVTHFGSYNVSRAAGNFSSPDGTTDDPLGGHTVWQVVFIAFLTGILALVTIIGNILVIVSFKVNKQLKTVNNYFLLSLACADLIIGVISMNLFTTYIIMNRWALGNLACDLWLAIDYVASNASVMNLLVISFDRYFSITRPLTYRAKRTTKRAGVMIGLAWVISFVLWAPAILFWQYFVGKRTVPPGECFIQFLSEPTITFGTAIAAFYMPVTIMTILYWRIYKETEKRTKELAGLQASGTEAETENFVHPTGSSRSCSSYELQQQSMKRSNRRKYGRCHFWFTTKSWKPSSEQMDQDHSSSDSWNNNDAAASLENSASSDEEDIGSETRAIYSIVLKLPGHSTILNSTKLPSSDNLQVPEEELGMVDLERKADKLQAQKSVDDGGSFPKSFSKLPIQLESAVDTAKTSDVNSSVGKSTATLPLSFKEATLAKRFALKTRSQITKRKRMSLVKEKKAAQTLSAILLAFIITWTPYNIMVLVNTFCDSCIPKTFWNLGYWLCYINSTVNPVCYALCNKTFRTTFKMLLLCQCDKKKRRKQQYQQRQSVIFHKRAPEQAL

The structures appear in SMILES notation.

A word on the IC50: it is the concentration that inhibits the measured activity by half. For `O=C(c1ccc(SC(F)(F)F)cc1)N1CCN2C(=O)c3ccccc3C12c1ccc(Cl)cc1` (stereo unspecified), the IC50 in assay [1] came to 3 µM. The Activity in assay [2] was -9.2%.
On the same counts, the results for `O=C(c1ccc(SC(F)(F)F)cc1)N1CCN2C(=O)c3ccccc3C12c1ccc(F)cc1` (stereo unspecified) are 1.3 µM and -0.2%.
On the same counts, the results for `O=C(c1ccc(SC(F)(F)F)cc1)N1CCN2C(=O)c3ccccc3C12c1ccccc1` (stereo unspecified) are 1.38 µM and 0.5%.
On the same counts, the results for `O=C(c1ccc(C(F)(F)F)cc1)N1CCN2C(=O)c3ccccc3C12c1ccccc1` (stereo unspecified) are 1.95 µM and -2.4%.
Regarding `Cc1ccc(C(=O)N2CCN3C(=O)c4ccccc4C23c2ccc(F)cc2)cc1` (stereo unspecified), the IC50 in assay [1] was above 10 µM.
Regarding `O=C(c1ccc(OC(F)(F)F)cc1)N1CCN2C(=O)c3ccccc3C12c1ccc(Cl)cc1` (stereo unspecified), the concentration for half-maximal inhibition (IC50) in assay [1] came out at 2.3 µM. In addition, in assay [2], the Activity is -5.3%.
For `O=C(c1cccc(C(F)(F)F)c1)N1CCN2C(=O)c3ccccc3C12c1ccc(F)cc1` (stereo unspecified), in that order: 2.1 µM and -2.4%.
On to `O=C(c1cc(F)cc(F)c1)N1CCN2C(=O)c3ccccc3C12c1ccc(F)cc1` (stereo unspecified), for which the half-maximal inhibitory concentration (IC50) in assay [1] is above 10 µM.
On to `Cc1ccc(C23c4ccccc4C(=O)N2CCN3C(=O)c2ccc(OC(F)(F)F)cc2)cc1` (stereo unspecified), for which the concentration for half-maximal inhibition (IC50) in assay [1] was 3.5 µM. In addition, the Activity in assay [2] was -0.2%.
On the same counts, the results for `Cc1ccc(C(=O)N2CCN3C(=O)c4ccccc4C23c2ccc(Cl)cc2)cc1` (stereo unspecified) are 2.6 µM and 0.1%.
For `Cc1ccc(C23c4ccccc4C(=O)N2CCN3C(=O)c2cc(F)cc(F)c2)cc1` (stereo unspecified), in that order: 2.3 µM and -1.1%.
`O=C(c1ccc(C(F)(F)F)cc1)N1CCN2C(=O)c3ccccc3C12c1ccc(F)cc1` (stereo unspecified): the IC50 in assay [1] was above 10 µM.
Turning to `O=C(c1cccc(C(F)(F)F)c1)N1CCN2C(=O)c3ccccc3C12c1ccccc1` (stereo unspecified), the IC50 in assay [1] was found to be 3.02 µM. Besides, the Activity in assay [2] is -0.7%.
As for `Cc1ccc(C23c4ccccc4C(=O)N2CCN3C(=O)c2ccc(C(F)(F)F)cc2)cc1` (stereo unspecified), in assay [1], the 50% inhibitory concentration (IC50) was above 10 µM.
Still for that read-out and setting: in the case of `O=C(c1ccc(F)c(F)c1)N1CCN2C(=O)c3ccccc3C12c1ccc(F)cc1` (stereo unspecified) it was above 10 µM.
On to `O=C(c1ccc(C(F)(F)F)cc1)N1CCN2C(=O)c3ccccc3C12c1ccc(Cl)cc1` (stereo unspecified), for which the IC50 in assay [1] was 2 µM. In addition, the Activity in assay [2] came out at 0.7%.
For the compound `O=C(c1cc(Cl)cc(Cl)c1)N1CCN2C(=O)c3ccccc3C12c1ccccc1` (stereo unspecified), the IC50 in assay [1] came out at 5.75 µM. In addition, the Activity in assay [2] is 0%.
For `Cc1ccc(C23c4ccccc4C(=O)N2CCN3C(=O)c2ccc(SC(F)(F)F)cc2)cc1` (stereo unspecified), in that order: 4.1 µM and 4.1%.
For the compound `O=C(c1ccc(F)cc1)N1CCN2C(=O)c3ccccc3C12c1ccccc1` (stereo unspecified), the half-inhibitory concentration (IC50) in assay [1] was 3.49 µM; in assay [3], above 30 µM; in assay [4], above 30 µM; in assay [5], 5.67 µM; in assay [6], above 30 µM; in assay [7], above 30 µM. In addition, the Activity in assay [2] is 41%.
For the compound `O=C(c1ccc(OC(F)(F)F)cc1)N1CCN2C(=O)c3ccccc3C12c1ccc(F)cc1` (stereo unspecified), the 50% inhibitory concentration (IC50) in assay [1] is above 10 µM.
Same read-out and setting: in the case of `Cc1ccc(C(=O)N2CCN3C(=O)c4ccccc4C23c2ccc(C)cc2)cc1` (stereo unspecified) it was above 10 µM.
Turning to `O=C(c1cc(F)cc(F)c1)N1CCN2C(=O)c3ccccc3C12c1ccc(Cl)cc1` (stereo unspecified), the IC50 in assay [1] worked out at 1 µM. Also, in assay [2], the Activity came out at 2.8%.
For `O=C(c1cc(F)cc(F)c1)N1CCN2C(=O)c3ccccc3C12c1ccccc1` (stereo unspecified), the IC50 in assay [1] came out at 3.8 µM. Besides, the Activity in assay [2] was -2.2%.
For the compound `O=C(c1ccc(OC(F)(F)F)cc1)N1CCN2C(=O)c3ccccc3C12c1ccccc1` (stereo unspecified), in assay [1], the half-maximal inhibitory concentration (IC50) is 4.47 µM. Also, the Activity in assay [2] is 0.2%.
For `O=C(c1cccc(C(F)(F)F)c1)N1CCN2C(=O)c3ccccc3C12c1ccc(Cl)cc1` (stereo unspecified), in that order: 4.9 µM and -7.2%.
In the case of `Cc1ccc(C23c4ccccc4C(=O)N2CCN3C(=O)c2ccc(F)c(F)c2)cc1` (stereo unspecified), in assay [1], the concentration for half-maximal inhibition (IC50) amounted to 2.6 µM. Besides, in assay [2], the Activity is -6.8%.
Take `Cc1ccc(C23c4ccccc4C(=O)N2CCN3C(=O)c2cccc(C(F)(F)F)c2)cc1` (stereo unspecified): the IC50 in assay [1] was above 10 µM.
Consider `O=C(c1ccc(F)c(F)c1)N1CCN2C(=O)c3ccccc3C12c1ccc(Cl)cc1` (racemic), for which the IC50 in assay [3], in assay [4], in assay [6] and in assay [7] was above 30 µM throughout. The Activity in assay [2] was 0.1%.

These data come from ChEMBL document CHEMBL3102750 (J Med Chem, 2013).
